Assay results from patent US10105357B2, “Indication of antibiotic drugs for preparation of cancer inhibition pharmaceutical composition” (LAUNX BIOMEDICAL CO., LTD., priority 2014, dated 2018).
Structures can show the parent of a compound that is named as a salt. Where two headings read alike, the source gives them in different places.

What was measured:
Assay type in all cases: cell-based, human
cancer cell lines = test: Cell viability analysis (WST-1) on cancer cell lines; settings: drug 10 μM, 72 hours, WST-1; Table 3
[1] = test system: HI650 (Lung Adenocarcinoma); test: Cell viability analysis, lung cancer HI650; settings: for viability at 10 µM: Homo sapiens
[2] = test system: A549 (Lung Adenocarcinoma); test: Cell viability analysis, lung cancer A549; settings: for viability at 10 µM: Homo sapiens
[3] = test system: AGS (Gastric Adenocarcinoma); test: Cell viability analysis, gastric cancer AGS; settings: for viability at 10 µM: Homo sapiens
[4] = test system: MKN-45 (Gastric Adenocarcinoma); test: Cell viability analysis, gastric cancer MKN-45; settings: for viability at 10 µM: Homo sapiens
[5] = test system: HepG2 (Hepatocellular Carcinoma); test: Cell viability analysis, hepatic cancer HepG2; settings: for viability at 10 µM: Homo sapiens
[6] = test system: LoVo (Colorectal Adenocarcinoma); test: Cell viability analysis, colon cancer LoVo; settings: for viability at 10 µM: Homo sapiens, LoVo
[7] = test system: A375 (Amelanotic Melanoma); test: Cell viability analysis, skin cancer A375; settings: for viability at 10 µM: Homo sapiens
[8] = test system: HeLa (Cervix Adenocarcinoma); test: Cell viability analysis, cervical cancer HeLa; settings: for viability at 10 µM: Homo sapiens, HeLa
[9] = test system: PC3 (p53−) (Prostate Adenocarcinoma); test: Cell viability analysis, prostate cancer PC3; settings: for viability at 10 µM: Homo sapiens
[10] = test system: TSGH-8301 (Urinary Bladder Carcinoma); test: Cell viability analysis, bladder cancer TSGH-8301; settings: for viability at 10 µM: Homo sapiens
[11] = test system: MCF7 (Mammary Gland, Adenocarcinoma); test: Cell viability analysis, breast cancer MCF7; settings: for viability at 10 µM: Homo sapiens
[12] = test system: HL-60 (Acute Promyelocytic Leukemia); test: Cell viability analysis, leukemia HL-60; settings: for viability at 10 µM: Homo sapiens
[13] = NCI-H1650, 72 h, drug 10 μM, 72 hours, WST-1, OD450 nm, read-out: cell viability (survival rate), H1650
[14] = A549, 72 h, drug 10 μM, 72 hours, WST-1, OD450 nm, read-out: cell viability (survival rate), A549
[15] = 72 h, drug 10 μM, 72 hours, WST-1, OD450 nm, read-out: cell viability (survival rate), AGS
[16] = MKN-45, 72 h, drug 10 μM, 72 hours, WST-1, OD450 nm, read-out: cell viability (survival rate), MKN-45
[17] = HepG2, 72 h, drug 10 μM, 72 hours, WST-1, OD450 nm, read-out: cell viability (survival rate), HepG2
[18] = 72 h, read-out: cell viability (survival rate), LoVo, drug 10 μM, 72 hours, WST-1, OD450 nm
[19] = A-375, 72 h, drug 10 μM, 72 hours, WST-1, OD450 nm, read-out: cell viability (survival rate), A375
[20] = 72 h, drug 10 μM, 72 hours, WST-1, OD450 nm, read-out: cell viability (survival rate), HeLa
[21] = 72 h, drug 10 μM, 72 hours, WST-1, OD450 nm, read-out: cell viability (survival rate), PC3
[22] = 72 h, drug 10 μM, 72 hours, WST-1, OD450 nm, read-out: cell viability (survival rate), TSGH
[23] = MCF7, 72 h, drug 10 μM, 72 hours, WST-1, OD450 nm, read-out: cell viability (survival rate), MCF7
[24] = HL-60, 72 h, drug 10 μM, 72 hours, WST-1, OD450 nm, read-out: cell viability (survival rate), HL-60
[25] = NCI-H1650, 72 h, read-out: cell viability (survival rate), H1650, drug 10 μM, 72 hours, WST-1, OD450 nm
[26] = A549, 72 h, read-out: cell viability (survival rate), A549, drug 10 μM, 72 hours, WST-1, OD450 nm
[27] = 72 h, read-out: cell viability (survival rate), AGS, drug 10 μM, 72 hours, WST-1, OD450 nm
[28] = MKN-45, 72 h, read-out: cell viability (survival rate), MKN-45, drug 10 μM, 72 hours, WST-1, OD450 nm
[29] = HepG2, 72 h, read-out: cell viability (survival rate), HepG2, drug 10 μM, 72 hours, WST-1, OD450 nm
[30] = A-375, 72 h, read-out: cell viability (survival rate), A375, drug 10 μM, 72 hours, WST-1, OD450 nm
[31] = 72 h, read-out: cell viability (survival rate), HeLa, drug 10 μM, 72 hours, WST-1, OD450 nm
[32] = 72 h, read-out: cell viability (survival rate), PC3, drug 10 μM, 72 hours, WST-1, OD450 nm
[33] = 72 h, read-out: cell viability (survival rate), TSGH, drug 10 μM, 72 hours, WST-1, OD450 nm
[34] = MCF7, 72 h, read-out: cell viability (survival rate), MCF7, drug 10 μM, 72 hours, WST-1, OD450 nm
[35] = HL-60, 72 h, read-out: cell viability (survival rate), HL-60, drug 10 μM, 72 hours, WST-1, OD450 nm

Row | SMILES | inhibition effect on different cancer cell lines (cancer cell lines) | viability at 10 µM [6, 18] | viability at 10 µM [1, 25] | viability at 10 µM [2, 26] | viability at 10 µM [3, 27] | viability at 10 µM [4, 28] | viability at 10 µM [5, 29] | viability at 10 µM [7, 30] | viability at 10 µM [8, 31] | viability at 10 µM [9, 32] | viability at 10 µM [10, 33] | viability at 10 µM [11, 34] | viability at 10 µM [12, 35] | further results
1 | CC(C)[C@H](N)C(=O)OCCOCn1cnc2c(=O)[nH]c(N)nc21 [Valaciclovir HCl] | significant inhibition effect | 97% | – | – | – | – | – | – | – | – | – | – | – | viability at 10 µM [1, 13]: 90.6%; viability at 10 µM [2, 14]: 126%; viability at 10 µM [3, 15]: 110%; viability at 10 µM [4, 16]: 91.6%; viability at 10 µM [5, 17]: 110%; viability at 10 µM [7, 19]: 95.6%; viability at 10 µM [8, 20]: 109%; viability at 10 µM [9, 21]: 68.3%; viability at 10 µM [10, 22]: 83.9%; viability at 10 µM [11, 23]: 67.8%; viability at 10 µM [12, 24]: 103%
2 | [O-][n+]1ccccc1[S-].[O-][n+]1ccccc1[S-].[Zn+2] [Pyrithione zinc] | significant inhibition effect | – | – | – | – | – | – | – | – | – | – | – | – | cell viability (survival rate), H1650 [1]: 60.6; cell viability (survival rate), A549 [2]: 29.7; cell viability (survival rate), AGS [3]: 35.4; cell viability (survival rate), MKN-45 [4]: 57.4; cell viability (survival rate), HepG2 [5]: 70.4; cell viability (survival rate), LoVo [6]: 45.5; cell viability (survival rate), A375 [7]: 27.1; cell viability (survival rate), HeLa [8]: 47.4; cell viability (survival rate), PC3 [9]: 24.3; cell viability (survival rate), TSGH [10]: 28.7; cell viability (survival rate), MCF7 [11]: 51.8; cell viability (survival rate), HL-60 [12]: 34.5
3 | CC(C)OC(=O)OCOP(=O)(CO[C@H](C)Cn1cnc2c(N)ncnc21)OCOC(=O)OC(C)C [Tenofovir Disoproxil Fumarate] | significant inhibition effect | – | – | – | – | – | – | – | – | – | – | – | – | viability at 10 µM ([1]; NCI-H1650, drug 10 μM, 72 hours, WST-1, OD450 nm, read-out: cell viability (survival rate), H1650): 50.9%; viability at 10 µM ([2]; A549, drug 10 μM, 72 hours, WST-1, OD450 nm, read-out: cell viability (survival rate), A549): 47%; viability at 10 µM ([3]; drug 10 μM, 72 hours, WST-1, OD450 nm, read-out: cell viability (survival rate), AGS): 54.7%; viability at 10 µM ([4]; MKN-45, drug 10 μM, 72 hours, WST-1, OD450 nm, read-out: cell viability (survival rate), MKN-45): 71.6%; viability at 10 µM ([5]; HepG2, drug 10 μM, 72 hours, WST-1, OD450 nm, read-out: cell viability (survival rate), HepG2): 93.7%; viability at 10 µM ([6]; drug 10 μM, 72 hours, WST-1, OD450 nm, read-out: cell viability (survival rate), LoVo): 75.8%; viability at 10 µM ([7]; A-375, drug 10 μM, 72 hours, WST-1, OD450 nm, read-out: cell viability (survival rate), A375): 67.1%; viability at 10 µM ([8]; drug 10 μM, 72 hours, WST-1, OD450 nm, read-out: cell viability (survival rate), HeLa): 85.7%; viability at 10 µM ([9]; drug 10 μM, 72 hours, WST-1, OD450 nm, read-out: cell viability (survival rate), PC3): 66.9%; viability at 10 µM ([10]; drug 10 μM, 72 hours, WST-1, OD450 nm, read-out: cell viability (survival rate), TSGH): 88.2%; viability at 10 µM ([11]; MCF7, drug 10 μM, 72 hours, WST-1, OD450 nm, read-out: cell viability (survival rate), MCF7): 68.7%; viability at 10 µM ([12]; HL-60, drug 10 μM, 72 hours, WST-1, OD450 nm, read-out: cell viability (survival rate), HL-60): 93.4%
4 | CC(NCCc1ccc(O)cc1)C(O)c1ccc(O)cc1 (stereo not drawn) [Ritodrine hydrochloride (Yutopar), Ritodrine hydrochloride] | significant inhibition effect | 104% | 96.4% | 95.5% | 80.1% | 97.2% | 92.8% | 87.4% | 133% | 113% | 64.4% | 86.5% | 86% | –
5 | CC(C)NCC(O)c1ccc(O)c(O)c1 (stereo not drawn) [Isoprenaline hydrochloride] | significant inhibition effect | 80.6% | 39.9% | 56.1% | 72% | 79.6% | 81.4% | 90% | 91.1% | 73.6% | 81.6% | 73.2% | 96.8% | –
6 | CC[C@H]1OC(=O)C[C@@H](O)[C@H](C)[C@@H](O[C@@H]2O[C@H](C)[C@@H](O)[C@H](N(C)C)[C@H]2O)[C@@H](CCN2C[C@H](C)C[C@H](C)C2)C[C@@H](C)C(=O)/C=C/C(C)=C/[C@@H]1CO[C@@H]1O[C@H](C)[C@@H](O)[C@@H](OC)[C@H]1OC [Tilmicosin] | significant inhibition effect | 83.8% | – | – | – | – | – | – | – | – | – | – | – | viability at 10 µM [1, 13]: 72.7%; viability at 10 µM [2, 14]: 53.5%; viability at 10 µM [3, 15]: 102%; viability at 10 µM [4, 16]: 52.1%; viability at 10 µM [5, 17]: 92.1%; viability at 10 µM [7, 19]: 54.7%; viability at 10 µM [8, 20]: 67%; viability at 10 µM [9, 21]: 81.5%; viability at 10 µM [10, 22]: 56.5%; viability at 10 µM [11, 23]: 39.1%; viability at 10 µM [12, 24]: 75%
7 | CC1(C)S[C@@H]2[C@H](NC(=O)[C@H](NC(=O)N3CCN(S(C)(=O)=O)C3=O)c3ccccc3)C(=O)N2[C@H]1C(=O)O [Mezlocillin Sodium] | significant inhibition effect | 116% | 81% | 78% | 72.2% | 92.9% | 95.1% | 107% | 111% | 97.8% | 91.9% | 107% | 91.4% | –
8 | COc1cc2nc(N3CCN(C(=O)C4CCCO4)CC3)nc(N)c2cc1OC (stereo not drawn) [Terazos in HCl (Hytrin), Terazosin HCl] | significant inhibition effect | 45.7% | 74.9% | 21.3% | 56.8% | 82.1% | 93.4% | 77.9% | 60.7% | 40.5% | 71.6% | 33.4% | 111% | –
9 | C[C@@H]1CC[C@H]2[C@@H](C)C(=O)O[C@@H]3O[C@@]4(C)CC[C@@H]1[C@]32OO4 [Artemisinin] | significant inhibition effect | 104% | 106% | 98.7% | 87.7% | 117% | 116% | 88.9% | 120% | 92.5% | 63.6% | 151% | 146% | –
